Measurements as given in patent publication US20020122768A1, “Stable radiopharmaceutical compositions and methods for preparation thereof” (priority 2000, published 2002).

Experiments:
[1] = Solution stability of ^90Y-A at −78° C., RCP by radio-HPLC; assay type: physicochemical; conditions: for RCP (%) change: t = 0 h to 72 h
Procedure: The integrity of a radiopharmaceutical is measured by the radiochemical purity (RCP) of the radiolabeled compound using ITLC or more preferably HPLC. The advantage of using HPLC is that radio-impurities caused by radiolytic degradation can be separated from the radiopharmaceutical under optimized chromatographic conditions. […] The radiopharmaceutical compositions of this invention are effective in maintaining the long-term stability of samples that have been frozen, thawed, and re-tested periodically for 7 days.
The initial RCP of a radiopharmaceutical is largely dependent on radiolabeling conditions such as pH, heating temperature and time. Once a radiopharmaceutical is prepared in high yield, the stability of the radiopharmaceutical composition is measured by the` RCP change of the radiopharmaceutical over a certain period of time. For comparison purposes, sodium gentisate or sodium ascorbate was often used as the reference since they have been used in various radiopharmaceutical formulations.
Analytical Methods. HPLC method 1 used a HP-1100 HPLC system with a UV/visible detector (λ=220 nm), an IN-US radio-detector, and a Zorbax C18 column (4.6 mm×250 mm, 80 Å pore size). The flow rate was 1 mL/min with the mobile phase being isocratic from 0 to 18 min using 87% solvent A (0.025 M ammonium acetate buffer, pH 6.8) and 13% solvent B (acetonitrile), followed by an isocratic wash using 40% of solvent A and 60% solvent B from 19 to 25 min.
The ITLC method used Gelman Sciences silica-gel ITLC paper strips and 1:1 mixture of acetone and saline as eluant. By this method, the radiolabeled compounds migrate to the solvent front while [^90Y]/^177Lu]colloid and [^90Y]/^177Lu]acetate remain at the origin.
^90Y-A was prepared using the procedure described in example 4. The resulting solution was the kept in a dry-ice box (−78° C.) for 3 days. Samples were analyzed at t=0, 24, 48, and 72 h.
To a lead-shielded clean 5 mL vial containing 100 μg of COMPOUND A and 2 mg of 3,4,5-trihydroxybenzoic acid (3,4,5-THBA) dissolved in 0.5 mL of 0.5 M ammonium acetate buffer (pH=8.0) was added 20 μL Of ^90YCl3 solution (˜20 mCi) in 0.05 N HCl. The reaction mixture was heated at 100° C. for 5 min. After cooling to room temperature, 0.5 mL of 3,4,5-THBA solution (20 mg/mL) in 0.5 M ammonium acetate buffer (pH=8.0) was added to the solution above. A sample of the resulting mixture was then diluted 20-fold with GA solution (10 mg/mL, pH=7.4), and analyzed by HPLC (Method 1, injection volume=1 μL) and ITLC. […] The resulting mixture was kept at −78° C. for 3 days. Samples were analyzed at t=0, 1, 2, and 3 days.
(§1) Synthesis of ^90Y-A was carried out according to the procedure described in example 12. After cooling to room temperature, 0.5 mL of 2,3,4-THBA solution (20 mg/mL) in 0.5 M ammonium acetate buffer (pH=8.0) was added to the solution containing ^90Y-A. The resulting mixture was kept at -78 °C for 3 days. Samples were analyzed at t=0, 1, 2, and 3 days.
as §1, with “DSA” for “2,3,4-THBA”, “−78° C.” for “-78 °C”
as §1, with “mL of HABA solution (20” for “mL of 2,3,4-THBA solution (20”, “kept at −78° C. for 3” for “kept at -78 °C for 3”, “3 days. […]” for “3 days.”
To a lead-shielded clean 30 mL vial containing 1000 μg of COMPOUND A and 100 mg of sodium gentisate (GA) dissolved in 5 mL of 0.5 M ammonium acetate buffer (pH=7.5) was added ˜250 μL of ^90YCl3 solution (˜200 mCi) in 0.05 N HCl. The reaction mixture was heated at 100° C. for 15 min. […]

[2] = Solution stability of ^90Y-A at room temperature, RCP by radio-HPLC; assay type: physicochemical; conditions: for RCP (%) change: ^90Y-A, t = 0 h to last time point
Procedure: The advantage of using HPLC is that radio-impurities caused by radiolytic degradation can be separated from the radiopharmaceutical under optimized chromatographic conditions.
The initial RCP of a radiopharmaceutical is largely dependent on radiolabeling conditions such as pH, heating temperature and time. Once a radiopharmaceutical is prepared in high yield, the stability of the radiopharmaceutical composition is measured by the` RCP change of the radiopharmaceutical over a certain period of time.
Analytical Methods. HPLC method 1 used a HP-1100 HPLC system with a UV/visible detector (λ=220 nm), an IN-US radio-detector, and a Zorbax C18 column (4.6 mm×250 mm, 80 Å pore size).
The ITLC method used Gelman Sciences silica-gel ITLC paper strips and 1:1 mixture of acetone and saline as eluant.
(§2) The reaction mixture was heated at 100° C. for 10 min. A sample of the resulting solution was first diluted 20-fold with 2 mM DTPA solution (pH=5), and was then analyzed by HPLC (Method 1, injection volume=1-2 μL) and ITLC. […] The resulting solution was kept at room temperature for 6 days.
as §2, §2
The reaction mixture was heated at 100° C. for 10 min. A sample of the resulting solution was first diluted 20-fold with 2 mM DTPA solution (pH=5), and was then analyzed by HPLC (Method 1, injection volume 1-2 μL) and ITLC. […] The resulting solution was kept at room temperature for 7 days.
(§3) The reaction mixture was heated at 100° C. for 10 min. A sample of the resulting solution was first diluted 20-fold with 2 mM DTPA solution (pH=5), and was then analyzed by HPLC (Method 1, injection volume=1-2 μL) and ITLC. […] The resulting solution was kept at room temperature for 7 days.
as §3, §3

[3] = ^90Y-A prepared using 2 mg 3,4,5-THBA, second stabilizer (0.5 mL of 20 mg/mL) added after radiolabeling, −78° C.
[4] = ^90Y-A prepared using 2 mg 3,4,5-THBA, second stabilizer added after radiolabeling, −78° C.
[5] = ^90Y-A, 10 mg stabilizer, dry-ice box (−78° C.)
[6] = ^90Y-A, 10 mg stabilizer, −78° C.
[7] = ^90Y-A (~20 mCi), 2 mg stabilizer, room temperature
[8] = ^90Y-A (~20 mCi), 10 mg stabilizer, room temperature
[9] = 10 mg stabilizer, room temperature

RCP (%) t = 0 h [1, 3] [%] | RCP (%) t = 24 h [1, 3] [%] | RCP (%) t = 48 h [1, 3] [%] | RCP (%) t = 72 h [1, 3] [%] | RCP (%) change [1, 4] [%] | RCP (%) t = 0 h [1, 5] [%] | RCP (%) t = 24 h [1, 5] [%] | RCP (%) t = 48 h [1, 5] [%] | RCP (%) t = 72 h [1, 5] [%] | RCP (%) change [1, 6] [%] | RCP (%) t = 0 h [2, 8] [%] | RCP (%) t = 24 h [2, 8] [%] | RCP (%) t = 72 h [2, 8] [%] | RCP (%) t = 148 h [2, 8] [%] | RCP (%) change [2, 9] [%] | further results | Molecule
97.5 | 98.4 | 98.3 | 96.6 | 0.9 | 93.3 | 92.4 | 93.5 | 93.5 | 0.2 | 93.3 | 92.4 | 88 | 79.5 | 13.8 | RCP (%) t = 0 h [2, 7]: 95.3%; RCP (%) t = 24 h [2, 7]: 89.3%; RCP (%) t = 48 h [2, 7]: 80.6%; RCP (%) t = 120 h [2, 7]: 74.3%; RCP (%) t = 144 h [2, 7]: 73.4%; stabilization compared with GA ([2]; ^90Y-A at room temperature, 2 mg stabilizer): better stabilizers than GA | O=C(O)c1cc(O)c(O)c(O)c1 [3,4,5-THBA, 3,4,5-trihydroxybenzoic acid]
98.1 | 99.2 | 99.0 | 98.2 | 0 | – | – | – | – | – | – | – | – | – | – | – | O=C(O)c1ccc(O)c(O)c1O [2,3,4-THBA, 2,3,4-trihydroxybenzoic acid]
98.5 | 98.9 | 96.7 | 96.7 | 1.8 | 94.4 | 94.0 | 94.1 | 94.2 | 0.2 | 92.2 | 89.3 | 82.8 | 80.5 | 11.7 | – | 2,4-disulfonatobenzeneamine [DSA]
